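Method: 48-hour compound exposure of cells in 96-well plates, five concentrations, linear interpolation of endpoints. GI50 marks 50% less growth.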 Calls of active or inactive are those of the source. Cut-off read from the data, not from the text of the source: active = GI50 up to about 1.1 µM and inactive = higher.

Test systems include A498; ACHN; BT-549; HOP-62; K562; KM12; MDA-N; MOLT-4; OVCAR-4; OVCAR-5; OVCAR-8; RPMI-8226; SK-MEL-5; SW-620; T47D; U-251; UACC-62; NCI-H460; HCC 2998; HL-60.
What all share (assay): NCI tumour cell line growth inhibition, 48 h

Regarding `O=[N+]([O-])c1ccc(/N=N/c2c(O)ccc3cc(S(=O)(=O)O)ccc23)cc1`, the GI50 in the assay on A498, with ACHN, in the assay on BT-549, with HOP-62, in the assay with K562 and with KM12 was > 100 µM (inactive) each time. The GI50 with MDA-N, in the assay with MOLT-4, in the assay with OVCAR-4, with OVCAR-5, with OVCAR-8 and in the assay with RPMI-8226 was > 100 µM (inactive) throughout. The GI50 in the assay on SK-MEL-5, with SW-620, with T47D, in the assay with U-251 and with UACC-62 was > 100 µM (inactive) each time.
For the compound `CN1c2ccccc2C2=C(c3ccccc3)CC[C@@H](C(=O)N3C4CC5CC[C@@]4(CS3(=O)=O)C5(C)C)[C@@H]21` (stereo not given in full), the GI50 in the assay on A498 is > 100 µM (inactive); with ACHN it was > 100 µM (inactive); in the assay on BT-549, > 100 µM (inactive); in the assay with HOP-62, > 100 µM (inactive); in the assay on K562 it was 10.5 µM (inactive); with KM12 it was > 100 µM (inactive). Further, the GI50 with MDA-N is > 100 µM (inactive); with MOLT-4, 4.58 µM (inactive); in the assay with NCI-H460, > 100 µM (inactive); in the assay with OVCAR-4, > 100 µM (inactive); with OVCAR-5, > 100 µM (inactive); in the assay with OVCAR-8, > 100 µM (inactive). Besides, the GI50 in the assay with RPMI-8226, with SK-MEL-5, in the assay with SW-620, with T47D, with U-251 and with UACC-62 was > 100 µM (inactive) in each case.
With `COC(=O)Cc1c(-c2[nH]c3ccccc3c2CC(=O)OC)[nH]c2ccccc12`, the GI50 in the assay on A498 was 38.3 µM (inactive); in the assay with ACHN, > 58.9 µM (inactive); with BT-549 it was > 57.1 µM (inactive); in the assay with HCC 2998 it was > 57 µM (inactive); in the assay on HOP-62, 23.2 µM (inactive); in the assay with K562, 27.7 µM (inactive). Moreover, the GI50 with KM12 is 26.3 µM (inactive); in the assay on MDA-N, > 53.8 µM (inactive); in the assay on MOLT-4, > 47.4 µM (inactive); in the assay on NCI-H460 it was > 63 µM (inactive); in the assay on OVCAR-4, > 49.9 µM (inactive); in the assay on OVCAR-5 it was > 54.8 µM (inactive). Moreover, the GI50 is 32.2 µM (inactive) with OVCAR-8; > 37.7 µM (inactive) with RPMI-8226; > 52.7 µM (inactive) with SK-MEL-5; > 53.5 µM (inactive) in the assay with SW-620; 2.13 µM (inactive) in the assay on T47D; 51.1 µM (inactive) with U-251. Besides, the GI50 with UACC-62 was > 49 µM (inactive).
Regarding `NC1Cc2ccccc2OC1=O` (stereo not given), the GI50 with ACHN, with BT-549, with HCC 2998, with HOP-62, with K562 and with KM12 was > 100 µM (inactive) each time. Also, the GI50 was > 10 µM (inactive) in the assay with MDA-N; > 100 µM (inactive) in the assay on MOLT-4; > 100 µM (inactive) in the assay on NCI-H460; > 100 µM (inactive) in the assay with OVCAR-5; > 100 µM (inactive) with OVCAR-8; > 100 µM (inactive) with RPMI-8226. The GI50 in the assay with SK-MEL-5, with SW-620, in the assay with T47D, with U-251 and in the assay with UACC-62 was > 100 µM (inactive) in each case.
As to `O=C(OCc1ccccc1)C1(N2CN(C3(C(=O)OCc4ccccc4)CCCC3)CN(C3(C(=O)OCc4ccccc4)CCCC3)C2)CCCC1`, the GI50 with ACHN, in the assay on BT-549, with HCC 2998, in the assay on HL-60, in the assay on HOP-62 and with K562 was > 10 µM (inactive) each time. Also, the GI50 in the assay on KM12, in the assay on MDA-N, with MOLT-4, in the assay with NCI-H460, in the assay on OVCAR-4 and with OVCAR-5 was > 10 µM (inactive) in each case. Besides, the GI50 in the assay with OVCAR-8, in the assay with RPMI-8226, with SK-MEL-5, in the assay with SW-620, in the assay with T47D and in the assay on U-251 was > 10 µM (inactive) each time. Also, the GI50 in the assay on UACC-62 is > 10 µM (inactive).
Consider `CCOC(=O)Nn1cnnc1C`, for which the GI50 in the assay with A498, with ACHN, with BT-549, in the assay on HCC 2998, in the assay with HOP-62 and in the assay with K562 was > 100 µM (inactive) throughout. Further, the GI50 in the assay on KM12, with MDA-N, in the assay on MOLT-4, with NCI-H460, with OVCAR-4 and in the assay on OVCAR-5 was > 100 µM (inactive) each time. For the same compound, the GI50 with OVCAR-8, in the assay with RPMI-8226, in the assay with SK-MEL-5, with SW-620, with T47D and with U-251 was > 100 µM (inactive) throughout. For the same compound, in the assay on UACC-62, the GI50 is > 100 µM (inactive).
Turning to `CN(C)CCNc1ccc([N+](=O)[O-])c2sc3ccccc3c(=O)c12`, the GI50 in the assay with ACHN was 2.51 µM (inactive); in the assay on BT-549, 2.1 µM (inactive); in the assay with HCC 2998, 2.92 µM (inactive); in the assay on HL-60, 2.66 µM (inactive); in the assay on HOP-62 it was 2.81 µM (inactive); in the assay on K562, 4.43 µM (inactive). The GI50 in the assay with KM12 is 5.19 µM (inactive); in the assay with MDA-N, 4.92 µM (inactive); in the assay with MOLT-4, 0.706 µM (active); in the assay with NCI-H460, 1.65 µM (inactive); in the assay on OVCAR-4 it was 3.1 µM (inactive); with OVCAR-5 it was 3.03 µM (inactive). Also, the GI50 was 3.63 µM (inactive) with OVCAR-8; 2.64 µM (inactive) with RPMI-8226; 8.63 µM (inactive) in the assay with SK-MEL-5; 2.43 µM (inactive) in the assay on SW-620; 13.7 µM (inactive) with T47D; 3.48 µM (inactive) with U-251. The GI50 with UACC-62 was 4.61 µM (inactive).
As to `NC(=S)NC/C=C/Cl`, the GI50 in the assay with ACHN, in the assay on BT-549, with HL-60, with HOP-62, with K562 and in the assay with KM12 was > 100 µM (inactive) in each case. For the same compound, the GI50 with MDA-N, in the assay on MOLT-4, in the assay on NCI-H460, in the assay with OVCAR-4, in the assay with OVCAR-5 and in the assay with OVCAR-8 was > 100 µM (inactive) each time. Moreover, the GI50 in the assay on RPMI-8226, with SK-MEL-5, with SW-620, in the assay on T47D and with UACC-62 was > 100 µM (inactive) throughout.
`CCN(CC)CCN(C)CCc1ccc(Br)cc1`: the GI50 was 13.8 µM (inactive) with A498; > 100 µM (inactive) with ACHN; 42.5 µM (inactive) in the assay with BT-549; > 100 µM (inactive) in the assay with HCC 2998; 29.7 µM (inactive) in the assay on HOP-62; 25.7 µM (inactive) in the assay on K562. Moreover, the GI50 is 51.2 µM (inactive) in the assay on KM12; 29.7 µM (inactive) in the assay on MDA-N; 53.6 µM (inactive) in the assay on MOLT-4; > 100 µM (inactive) in the assay on NCI-H460; 97.3 µM (inactive) in the assay with OVCAR-4; 48 µM (inactive) in the assay with OVCAR-5. Further, the GI50 in the assay with OVCAR-8 was > 100 µM (inactive); in the assay on RPMI-8226, > 100 µM (inactive); with SK-MEL-5 it was 17.2 µM (inactive); with SW-620 it was 54.8 µM (inactive); in the assay with T47D, > 100 µM (inactive); with U-251, 41.4 µM (inactive).
As to `NS(=O)(=O)c1nnc(NS(=O)(=O)c2cccc3cccnc23)s1`, the GI50 in the assay with A498, with ACHN, with BT-549, with HCC 2998, with HOP-62 and in the assay on K562 was > 100 µM (inactive) in each case. In addition, the GI50 in the assay on KM12, in the assay with MDA-N, with MOLT-4, in the assay on NCI-H460, in the assay on OVCAR-4 and in the assay on OVCAR-5 was > 100 µM (inactive) throughout. Also, the GI50 in the assay on OVCAR-8, in the assay with RPMI-8226, in the assay on SK-MEL-5, in the assay on SW-620, in the assay on T47D and with U-251 was > 100 µM (inactive) each time. Further, in the assay with UACC-62, the GI50 is > 100 µM (inactive).
Regarding `C[C@]12CC(c3ccccc3O1)C(C(=O)NC13CC4CC(CC(C4)C1)C3)C(=O)N2` (stereo not given in full), the GI50 is 39.9 µM (inactive) with A498; 34.1 µM (inactive) in the assay with ACHN; 28.1 µM (inactive) in the assay with BT-549; 29 µM (inactive) with HCC 2998; 44.3 µM (inactive) with HOP-62; 14 µM (inactive) with K562. The GI50 with KM12 is 35.5 µM (inactive); with MDA-N, 18.1 µM (inactive); with MOLT-4 it was 12 µM (inactive); with NCI-H460, 35.4 µM (inactive); in the assay with OVCAR-4 it was 52.6 µM (inactive); in the assay with OVCAR-5, 19.5 µM (inactive). The GI50 is 26.6 µM (inactive) in the assay on OVCAR-8; 16 µM (inactive) in the assay with RPMI-8226; 17.9 µM (inactive) with SK-MEL-5; 46.3 µM (inactive) in the assay with SW-620; 36.6 µM (inactive) with U-251; 46.8 µM (inactive) in the assay with UACC-62.

The values are drawn from ChEMBL document CHEMBL1201862, “PubChem BioAssay data set” (2004).
